Active and inactive are the calls of the source. The calls are words filed in the database; no cut-off is given here.

Series [1] has as its system Mus musculus. Description: Anorectic activity in overnight fasted C57BL/6J mouse assessed as inhibition of food intake at 10 nmol/kg, sc followed by re-feeding post dose and measured for 2 hrs. The series is classed as functional, organism-based.
The test system of series [2] is Mus musculus. Description: Antiobesity activity in DIO C57BL/6J mouse assessed as reduction in body weight at 0.01 mg/kg, sc for 2 weeks dosed as continuous administration by infusion of osmotic pumps relative to untreated control. In kind it is functional. More on the design: scale not given: the % may be the effect or the level left.
Series [3] addresses T1, Neuropeptide Y receptor type 2 (Homo sapiens, UniProt P49146).
T1 sequence (P49146 whole entry): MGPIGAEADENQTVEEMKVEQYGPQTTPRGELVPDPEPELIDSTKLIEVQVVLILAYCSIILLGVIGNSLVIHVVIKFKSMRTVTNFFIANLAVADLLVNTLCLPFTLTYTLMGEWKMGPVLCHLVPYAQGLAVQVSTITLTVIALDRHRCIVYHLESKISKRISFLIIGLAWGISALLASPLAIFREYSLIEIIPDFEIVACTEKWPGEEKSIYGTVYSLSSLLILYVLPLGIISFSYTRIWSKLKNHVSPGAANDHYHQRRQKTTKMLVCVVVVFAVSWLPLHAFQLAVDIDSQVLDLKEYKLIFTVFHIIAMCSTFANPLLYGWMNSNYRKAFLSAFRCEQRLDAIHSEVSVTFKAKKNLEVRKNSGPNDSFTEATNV
In words: Displacement of [125I]-PYY from human neuropeptide Y2 receptor expressed in CHO cell membranes incubated for 60 mins by TopCount based method. For orientation: Displacement assays read how much labelled ligand stays bound in the presence of the test substance.

In series [4] the test system is Mus musculus. Description: Anorectic activity in overnight fasted Y2R-/- C57BL/6J mouse assessed as inhibition of food intake at 10 nmol/kg, sc followed by re-feeding post dose and measured for 2 hrs. In kind it is functional, organism-based.
Series [5] concerns Mus musculus. Description: Anorectic activity in C57BL/6J mouse assessed as inhibition of food intake at 0.3 mg/kg/day, sc dosed as […] and measured after 24 hrs. The series is classed as functional.
The nature of series [6]: AUC (0 to 24 hrs) in C57BL/6J mouse at 1 mg/kg, sc measured during 5 mins to 24 hrs by LC/MS/MS method. Also on record: time < 24 hr, dose 1 mg/kg, route subcutaneous. Particulars: in vivo. In kind it is ADME, organism-based.
Series [7] relates to Mus musculus. In words: Anorectic activity in DIO C57BL/6J mouse assessed as reduction in cumulative food intake at 0.03 mg/kg, sc for 2 weeks dosed as continuous administration by infusion of osmotic pumps relative to untreated control. The series is classed as functional, organism-based.
Series [8] is described as follows: AUC (0 to 24 hrs) in C57BL/6J mouse at 1 mg/kg, iv measured during 5 mins to 24 hrs by LC/MS/MS method. The series is classed as ADME, organism-based. Also on record: dose 1 mg/kg, time < 24 hr, route intravenous. The note with it: in vivo.
The subject of series [9] is Mus musculus. Description: Antiobesity activity in DIO C57BL/6J mouse assessed as reduction in perirenal weight at 0.003 to 0.03 mg/kg, sc for 2 weeks dosed as continuous administration by infusion of osmotic pumps relative to untreated control. In kind it is functional, organism-based.

On to `CC[C@](C)(NC(=O)[C@H]1C[C@H](O)CN1C(=O)[C@H](CO)NC(=O)c1c[nH]cn1)C(=O)N[C@@H](Cc1ccncc1)C(=O)N[C@@H](CC1CCCCC1)C(=O)N[C@@H](CC(C)(C)C)C(=O)N[C@@H](CC(N)=O)C(=O)N[C@@H](CCCCN)C(=O)NC(C)(C)C(=O)N[C@H](C(=O)N[C@@H](CCCNC(=N)N)C(=O)N[C@@H](CCC(N)=O)C(=O)N[C@@H](CCCNC(=N)N)C(=O)N[C@@H](CC1CCCCC1)C(N)=O)[C@@H](C)O`, for which the outcome in series [1], in [7] and in series [9] was Active. The Activity in series [2] is on record as 8.3%. Further, the IC50 in [3] stood at 0.31 nM. Moreover, the result in series [4] was inactive. Besides, the inhibition in vivo at 0.3 mg/kg/day in [5] was 22%. Moreover, the AUC(0-t) at 24 h in [6] was 0.347 µM·h; in series [8], 0.577 µM·h.

As usually defined, the IC50 is the concentration that inhibits the measured activity by half. What is called inhibition in vivo is the change of the read-out against control, counted positive when it falls. In general, AUC(0-t) refers to the area under the concentration-time curve up to a stated or last time point.

These data come from ChEMBL document CHEMBL4177573 (Bioorg Med Chem, 2017).
